Measured values: US20080064727A1, “Crystalline forms of tiagabine hydrochloride” (Cephalon, Inc., priority 2006, published 2008)

Legend:
Assay type in all cases: physicochemical
[1] = Solid-form stability on storage, resulting form by XRPD analysis
Procedure: (§1) X-ray powder diffraction (XRPD) analyses were performed using the following instruments & methods:
(§2) A. Shimadzu XRD-6000 X-ray powder diffractometer using Cu Kα radiation. The instrument was equipped with a long fine focus X-ray tube. The tube voltage and amperage were set to 40 kV and 40 mA, respectively. The divergence and scattering slits were set at 1° and the receiving slit was set at 0.15 mm. Diffracted radiation was detected by a NaI scintillation detector. A θ-2θ continuous scan at 3°/min (0.4 sec/0.02° step) from 2.5 to 40° 2θ was used. A silicon standard was analyzed to check the instrument alignment. Data were collected and analyzed using XRD-6000 v. 4.1. Samples were prepared for analysis by placing them in a sample holder.
(§3) B. Inel XRG-3000 diffractometer, equipped with a CPS (Curved Position Sensitive) detector with a 2 Orange of 120°. Real time data were collected using Cu—Kα radiation starting at approximately 4° 2θ at a resolution of 0.03° 2θ. The tube voltage and amperage were set to 40 kV and 30 mA, respectively. The monochromator slit was set at 5 mm by 80 μm or 160 μm. […] Samples were prepared for analysis by packing them into thin-walled glass capillaries. Each capillary was mounted onto a goniometer head that is motorized to permit spinning of the capillary during data acquisition. The acquisition time was between 5 to 10 min. Instrument calibration was performed using a silicon reference standard.
(§4) D. Bruker D-8 Discover diffractometer and Bruker's General Area Diffraction Detection System (GADDS, v. 4.1.20). An incident beam of Cu—Kα radiation was produced using a fine-focus tube (40 kV, 40 mA), a Gobel mirror, and a 0.5 mm double-pinhole collimator. The samples were positioned for analysis by securing the well plate to a translation stage and moving each sample to intersect the incident beam. Alternatively, the sample was packed between 3-micron thick films to form a portable disc-shaped specimen, and the specimen was loaded in a holder secured to a translation stage. The samples were analyzed using a transmission geometry. The incident beam was scanned and rastered over the sample during the analysis to optimize orientation statistics. A beam-stop was used to minimize air scatter from the incident beam at low angles. Diffraction patterns were collected using a Hi-Star area detector located 15 cm from the sample and processed using GADDS. The intensity in the GADDS image of the diffraction pattern was integrated using a step size of 0.04° 2θ. The integrated patterns display diffraction intensity as a function of 2θ. Prior to the analysis a silicon standard was analyzed to verify the Si 111 peak position.
E. Peak Picking Methods. Any XRPD files generated from Inel or Bruker XRPD instruments were converted to Shimadzu .raw file using File Monkey version 3.0.4. The Shimadzu .raw file was processed by the Shimadzu XRD-6000 version 4.1 software to automatically find peak positions. The “peak position” means the maximum intensity of a peaked intensity profile. The following processes were used with the Shimadzu XRD-6000 “Basic Process” version 2.6 algorithm: • Smoothing was done on all patterns. • The background was subtracted to find the net, relative intensity of the peaks. • A peak from Cu K alpha2 (1.5444 Å) wavelength was subtracted from the peak generated by Cu K alpha1 (1.5406 Å) peak at 50% intensity for all patterns. Differential Scanning Calorimetry

[2] = Solid-form stability on heating, resulting form by XRPD analysis; details: heated five (5) minutes at about 160° C. in an argon atmosphere, lyophilized sample (Preparation Method 3), hydrochloride
Procedure: as §1, §2, §3
C. Shimadzu XRD-6000 X-ray powder diffractometer equipped with an Anton Paar HTK 1200 high temperature stage (Variable-temperature XRPD (VT-XRPD)). The sample was packed in a ceramic holder and analyzed form 2.5 to 40° 2θ at 3°/min (0.4 sec/0.02° step). The heating rate was 10° C./min. A silicon standard was analyzed to check the instrument alignment. Temperature calibration was performed using vanillin and sulfapyridine USP melting point standards. Data were collected and analyzed using XPD-6000 v.4.1. The system was kept under a purge of nitrogen during the analysis.
as §4
E. Peak Picking Methods. Any XRPD files generated from Inel or Bruker XRPD instruments were converted to Shimadzu .raw file using File Monkey version 3.0.4. The Shimadzu .raw file was processed by the Shimadzu XRD-6000 version 4.1 software to automatically find peak positions. The “peak position” means the maximum intensity of a peaked intensity profile. The following processes were used with the Shimadzu XRD-6000 “Basic Process” version 2.6 algorithm: • Smoothing was done on all patterns. • The background was subtracted to find the net, relative intensity of the peaks. • A peak from Cu K alpha2 (1.5444 Å) wavelength was subtracted from the peak generated by Cu K alpha1 (1.5406 Å) peak at 50% intensity for all patterns. […]

[3] = Moisture sorption/desorption (VTI SGA-100 moisture balance)
Procedure: Moisture sorption/desorption data were collected on a VTI SGA-100 moisture balance system. For sorption isotherms, a sorption range of 5 to 95% relative humidity (RH) and a desorption range of 95 to 5% RH in 10% RH increments were used for analysis. The samples were not dried prior to analysis. Equilibrium criteria used for analysis were less than 0.0100% weight change in 5 minutes with a maximum equilibration time of 3 hours if the weight criterion was not met. Data were not corrected for the initial moisture content of the samples.

[4] = Approximate solubility in various solvents by aliquot addition, visual dissolution; details: thermodynamic from solid, amorphous obtained by Preparation Method 3
Procedure: Dissolution was determined visually. The actual solubilities may be higher than reported due to the use of excess solvent (e.g., because of slow dissolution rates).

Q: With Cc1ccsc1C(=CCCN1CCC[C@@H](C(=O)O)C1)c1sccc1C.Cl [tiagabine HCl amorphous, tiagabine hydrochloride] as the compound, how does the “Time stable when stored” value ([1]; about 5° C., 11% relative humidity) read?
A: The value was “at least 5 days”.

Q: And the “Time stable when stored” value ([1]; about 5° C., 43% relative humidity)?
A: The value was at least 8 days.

Q: And the “Time stable when stored” value ([1]; room temperature, 33% relative humidity)?
A: The value was “at least 22 days”.

Q: What about the “Time stable when stored” value ([1]; room temperature, 58% relative humidity) of the same compound?
A: Its value is “at least 22 days”.

Q: What about the “Form indicated by XRPD analysis after storage” value (from here on “Form indicated … after storage”) ([1]; stored 5 days, about 5° C., about 11% relative humidity, lyophilized sample (Preparation Method 3)) of the same compound?
A: Its value is “tiagabine HCl amorphous”.

Q: What about the “Form indicated … after storage” value ([1]; stored 8 days, about 5° C., about 43% relative humidity, lyophilized sample (Preparation Method 3)) of the same compound?
A: Its value is “tiagabine HCl amorphous”.

Q: What about the “Form indicated … after storage” value ([1]; stored 22 days, room temperature, about 33% relative humidity, crash-cooled sample (Preparation Method 1)) of the same compound?
A: Its value is “tiagabine HCl amorphous”.

Q: And the “Form indicated … after storage” value ([1]; stored 22 days, room temperature, about 58% relative humidity, crash-cooled sample (Preparation Method 1))?
A: The value was “tiagabine HCl amorphous”.

Q: What about the “Form indicated … after storage” value ([1]; stored 22 days, room temperature, about 75% relative humidity, crash-cooled sample (Preparation Method 1), hydrochloride) of the same compound?
A: The value was “a mixture of tiagabine hydrochloride Forms A and B”.

Q: What about the “Form indicated … after storage” value ([1]; stored 22 days, room temperature, about 75% relative humidity, crash-cooled sample (Preparation Method 1), listed as Tiagabine hydrochloride amorphous, hydrochloride) of the same compound?
A: The value was “a mixture of Forms A and B”.

Q: And the “Form indicated … after storage” value ([1]; stored 22 days, room temperature, about 84% relative humidity, crash-cooled sample (Preparation Method 1), hydrochloride)?
A: The value was “a mixture of tiagabine hydrochloride Forms A and B”.

Q: And the “Form indicated … after storage” value ([1]; stored 22 days, room temperature, about 84% relative humidity, crash-cooled sample (Preparation Method 1), listed as Tiagabine hydrochloride amorphous, hydrochloride)?
A: The value was “a mixture of Forms A and B”.

Q: And the “Form indicated by XRPD analysis after heating” value [2]?
A: The value was “tiagabine HCl Form B”.

Q: What about the “Form indicated by XRPD analysis after heating” value ([2]; listed as Tiagabine hydrochloride amorphous) of the same compound?
A: The value was “tiagabine hydrochloride anhydrous”.

Q: And the “Weight gain upon sorption” value ([3]; at 95% relative humidity (RH))?
A: Its value is 12.1%.

Q: What about the “Weight loss upon desorption” value ([3]; from 95% to 5% RH) of the same compound?
A: The value was 9.5%.

Q: And the “Forms present by XRPD analysis after moisture sorption/desorption” value ([3]; sample after sorption 5 to 95% RH and desorption 95 to 5% RH)?
A: Its value is “tiagabine HCl Forms A and B”.

Q: What about the solubility ([4]; aqueous with cosolvent or surfactant or cyclodextrin, solvent: 2-propanol/water (1:1)) of the same compound?
A: Its solubility is over 129 mg/mL.

Q: What about the solubility ([4]; organic solvent or mixture, solvent: 1,4 dioxane/water (3:1)) of the same compound?
A: The solubility was over 359 mg/mL.

Q: And the solubility ([4]; organic solvent or mixture, solvent: Acetonitrile)?
A: Its solubility is under 26 mg/mL.

Q: What about the solubility ([4]; organic solvent or mixture, solvent: Benzonitrile) of the same compound?
A: The solubility was over 448 mg/mL.

Q: And the solubility ([4]; organic solvent or mixture, solvent: Chloroform)?
A: The solubility was over 582 mg/mL.

Q: What about the solubility ([4]; organic solvent or mixture, solvent: Dichloromethane) of the same compound?
A: The solubility was under 34 mg/mL.

Q: What about the solubility ([4]; organic solvent or mixture, solvent: Dioxane) of the same compound?
A: The solubility was over 542 mg/mL.

Q: And the solubility ([4]; organic solvent or mixture, solvent: Tetrahydrofuran)?
A: Its solubility is over 562 mg/mL.

Q: And the solubility ([4]; organic solvent or mixture, solvent: Toluene)?
A: Its solubility is under 43 mg/mL.

Q: And the solubility ([4]; organic solvent or mixture, solvent: Trifluoroethanol)?
A: The solubility was over 713 mg/mL.

Q: What about the solubility ([4]; organic solvent or mixture, solvent: ethanol/water (10:1)) of the same compound?
A: The solubility was over 400 mg/mL.

Q: And the solubility ([4]; organic solvent or mixture, solvent: ethyl acetate (wet))?
A: Its solubility is over 1190 mg/mL.

Q: And the solubility ([4]; organic solvent or mixture, solvent: ethyl acetate)?
A: Its solubility is under 24 mg/mL.

Q: What about the solubility ([4]; organic solvent or mixture, solvent: methyl ethyl ketone) of the same compound?
A: The solubility was over 546 mg/mL.

Q: And the solubility ([4]; organic solvent or mixture, solvent: methyl-tert-butyl ether)?
A: Its solubility is under 14 mg/mL.

Q: What about the solubility ([4]; water, solvent: Water) of the same compound?
A: Its solubility is over 490 mg/mL.
